Reference: patent US11324768B2, “Applications of triacetyl-3-hydroxyl phenyl adenosine in treating vascular inflammations or improving vascular endothelium functions” (priority 2016, dated 2022)

Legend:
Type in all cases: in vivo
ApoE−/− mice [1] = assay: Blood lipid levels in high-fat-fed ApoE−/− mice; conditions: 200 mg/kg, 8 weeks, high-fat diet
Experimental: (§1) After 1 week of adaptive feeding, the animals were randomly divided into 7 groups according to body weight: normal control group, model control group A769662 (30 mg/kg) administration group, metformin (260 mg/kg) administration group, IMM-H007 low, medium, and high administration groups (50, 100, 200 mg/kg), 8 in each group, and were given a high-fat diet (78.6% basal diet, 10% lard, 1.0% cholesterol, 10% egg yolk powder, and 0.4% bile salt), and simultaneously administered intragastrically at a dose of 0.1 ml/10 g body weight, and were continuously administered and fed for 8 weeks to establish an atherosclerosis model.
(1) Effect of IMM-H007 on Blood Lipid Levels in ApoE−/− Mice: Total Cholesterol (TC), Triglyceride (TG), Low-Density Lipoprotein Cholesterol (LDL), High-Density Lipoprotein Cholesterol (HDL), and Free Fatty Acid (FFA)
(§2) Operated according to kit instructions

TNF-α = assay: Serum inflammatory factor TNF-α in ApoE−/− mice (ELISA); set-up: unit not given here
Experimental: as §1, with “and simultaneously administered intragastrically at a dose of 0.1 ml/10 g” left out
(2) Effect of IMM-H007 on Serum Inflammatory Factors TNF-α and VCAM-1 in ApoE−/− Mice
as §2

ApoE−/− mice [2] = assay: Plaque area in ApoE−/− mice (oil red O staining of aorta and aortic root); conditions: for plaque area, Overall length of aorta: in % (unit assumed)
Experimental: as §1, with “and were continuously administered and fed for 8 weeks to establish an atherosclerosis” left out
The aortic root was stained with oil red O and the overall length of the aorta was stained with oil red O. The pathological images were analyzed by Photoshop, Image 1, and Image-Pro Plus softwares. The pathological grading data were statistically analyzed using Chi-square test.

Ob/Ob obese mice = assay: Biochemical indexes in Ob/Ob obese mice; conditions: 400 mg/kg
Experimental: After 1 week of adaptive feeding, animals were randomly divided into two groups according to body weight: model control group, and IMM-H007 group (400 mg/kg), 10 in each group, and were given normal feed and simultaneously administered intragastrically at a dose of 0.1 ml/10 g body weight, and were continuously administered and fed for 9 weeks. The changes of food intake and body weight were recorded, and routine biochemical indicators such as blood lipids and blood glucose, etc. were measured. After 9 weeks, 3 animals were taken from each group and the mesenteric arterioles were taken for measurement of vascular endothelial function in the same manner as in Example 2.
Detection Indicators (1) Routine Biochemical Indicators and (2) Vascular Endothelial Function

## CC(=O)OCC1OC(n2cnc3c(Nc4cccc(O)c4)ncnc32)C(OC(C)=O)C1OC(C)=O (stereo not drawn) [IMM-H007, 2′,3,′ 5′-triacetyl-N^6(3-hydroxyphenyl)adenosine]
ApoE−/− mice [1]
  High-density lipoprotein (HDL-C): 1.64 ± 1.15
  Triglyceride (TG): 1.48 ± 0.34
TNF-α; 100 mg/kg
  serum TNF-α: 256.3 ± 46.4
TNF-α; 200 mg/kg
  serum TNF-α: 250.2 ± 27.8
ApoE−/− mice [2]; 50 mg/kg
  plaque area, Frozen section of root of aorta %: 3.66 ± 2.65 %
  plaque area, Overall length of aorta: 6.18 ± 3.57
ApoE−/− mice [2]; 100 mg/kg
  plaque area, Frozen section of root of aorta %: 2.36 ± 0.43 %
  plaque area, Overall length of aorta: 3.93 ± 2.40
ApoE−/− mice [2]; 200 mg/kg
  plaque area, Frozen section of root of aorta %: 2.97 ± 0.92 %
  plaque area, Overall length of aorta: 3.67 ± 1.69
ApoE−/− mice [2]; high-fat diet for 10 weeks
  lipid accumulation at the plaque site, section staining of the root of aorta: a decrease
  plaque accumulation in the arch of aorta and overall length of aorta: significantly reduce
Ob/Ob obese mice; 4 week
  Fasting blood glucose: 6.69 ± 0.12 mmol/L
  Fasting insulin: 1.60 ± 0.18 ng/mL
  Free fatty acid: 1.06 ± 0.03 mEq/l
  Ingestion: 5.48 ± 0.05 g/day
  Low-density lipoprotein: 1.16 ± 0.04 mmol/L
  Total cholesterol: 3.57 ± 0.07 mmol/L
  Triglyceride: 0.69 ± 0.03 mmol/L
Ob/Ob obese mice; 9 week
  Body weight: 51.18 ± 0.67 g
  Fasting blood glucose: 9.98 ± 0.51 mmol/L
  Fasting insulin: 6.07 ± 0.48 ng/mL
  Free fatty acid: 0.44 ± 0.07 mEq/l
  Ingestion: 5.47 ± 0.08 g/day
  Low-density lipoprotein: 1.70 ± 0.28 mmol/L
  Total cholesterol: 4.13 ± 0.67 mmol/L
  Triglyceride: 0.52 ± 0.09 mmol/L
